The record followed here is PubChem BioAssay AID1645867 (Buhrlage Lab, Dana-Farber Cancer Institute and Novartis …, 2021).

Each structure is given as a SMILES string. Calls of active or inactive are those of the source. How the calls were made is not given here. Some results are limits rather than exact numbers.

As a reminder, the IC50 is the concentration needed to halve the response being measured.

Ubiquitin carboxyl-terminal hydrolase isozyme L1 (Homo sapiens), sequence (P09936 whole entry, looked up): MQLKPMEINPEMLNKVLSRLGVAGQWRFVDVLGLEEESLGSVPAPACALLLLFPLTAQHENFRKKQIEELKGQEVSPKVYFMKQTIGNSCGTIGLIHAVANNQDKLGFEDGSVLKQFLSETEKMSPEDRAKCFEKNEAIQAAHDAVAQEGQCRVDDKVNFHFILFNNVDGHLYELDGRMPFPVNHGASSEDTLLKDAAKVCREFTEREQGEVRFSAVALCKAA

This assay has as its target Ubiquitin carboxyl-terminal hydrolase isozyme L1 (Homo sapiens) (UniProt P09936). Kind of assay: UCH-L1 deubiquitylase inhibitors, biochemical concentration-response, hit retest (AID 1645867). The conditions noted are these: recombinant UCHL1 deubiquitinase activity assay.
Take `O=C(O)C1C(C(=O)Nc2ccccc2)C2(c3ccccc3)C(=O)C1(c1ccccc1)C(c1ccccc1)=C2c1ccccc1` (configuration not stated): the IC50 was > 25 µM (inactive).

As to `O=c1c2cc(Br)ccc2[nH]c(=S)n1Cc1cccnc1`, the IC50 was > 25 µM (inactive).

As for `O=C(/C=C/c1ccc(Cl)cc1)N(Cc1ccccc1)C1CCS(=O)(=O)C1` (configuration not stated), the IC50 was > 25 µM (inactive).

With `O=c1c2cc(-c3ccccc3)nn2ccn1Cc1noc(CN2CCCCC2)n1`, the IC50 is > 25 µM (inactive).

Take `Cn1c(=O)c(N2CCOCC2)nc2c(OCc3ccccc3)nc(N)nc21`: the IC50 is > 25 µM (inactive).

Regarding `CCC(=O)N1CCCC1c1nc2ccccc2n1Cc1ccc(F)cc1` (configuration not stated), the IC50 was > 25 µM (inactive).

As for `Cc1ccc2c(c1)c(=O)c(C(=O)c1ccccc1)cn2CC(=O)Nc1ccccc1`, the IC50 was > 25 µM (inactive).

In the case of `O=C(Nc1ccc(C(F)(F)F)cc1)C1CC(=O)N(c2ccc3c(c2)OCCO3)C1` (configuration not stated), the IC50 is > 25 µM (inactive).

Take `CCCCCC(O)c1c(O)cc2c(c1O)C(=O)c1c(O)cc(O)cc1C2=O` (configuration not stated): the IC50 is > 25 µM (inactive).

Regarding `O=C(COC(=O)c1cnccn1)Nc1ccc(Cl)cc1C(=O)c1ccccc1`, the IC50 is > 25 µM (inactive).

Consider `O=C(Nc1ccccc1-c1nc2ccccc2[nH]1)c1sc2ccccc2c1Cl`, for which the IC50 is > 25 µM (inactive).

For `COc1cc(O)cc2c1C(=O)OC(C)CCCCCCC2` (configuration not stated), the IC50 is > 25 µM (inactive).

For the molecule `COc1ccc(NC(=O)Cn2c(=O)n(CCC(=O)NCc3ccccc3)c(=O)c3sccc32)cc1Cl`, the IC50 was > 25 µM (inactive).

Turning to `COc1cccc(C(=O)N2CCc3nc(-c4ccc(F)cc4)ncc3C2)c1`, the IC50 is > 25 µM (inactive).

Regarding `O=C(NC1CC2(CCOCC2)Oc2ccccc21)c1cnccn1` (configuration not stated), the IC50 was > 25 µM (inactive).

Consider `O=[N+]([O-])c1ccc(S(=O)(=O)CC2CSc3nc4ccccc4n32)cc1` (configuration not stated), for which the IC50 was > 25 µM (inactive).

On to `FC(F)(F)c1ccc(Nc2nnnc3ccccc23)cc1`, for which the IC50 is > 25 µM (inactive).

Take `Cc1ccc(NC(=O)Nc2ccc(C)n(CC(=O)Nc3ccc(C)c(C)c3)c2=O)cc1`: the IC50 is > 25 µM (inactive).

In the case of `Cc1cccc(NC(=O)Cn2cnc(-c3noc(-c4ccccc4)n3)c2)c1C`, the IC50 is > 25 µM (inactive).

Consider `Cc1ccc(-n2cc(-c3noc(C(=O)Nc4ccc(F)cc4C)n3)nn2)cc1`, for which the IC50 was > 25 µM (inactive).

Turning to `CC(C)c1cc(C2CCCN2C(=O)Cc2ccc(Cl)cc2)no1` (configuration not stated), the IC50 was > 25 µM (inactive).

Consider `CCc1ccc(-n2c(C)cc(/C=C3\C(=N)N4N=CSC4=NC3=O)c2C)cc1`, for which the IC50 is > 25 µM (inactive).

On to `CCn1cc2c(n1)c(=O)n(Cc1ccccc1)c(=O)n2CC(=O)Nc1ccc(C)cc1C`, for which the IC50 was > 25 µM (inactive).

Turning to `CCC(C)N1CNc2c(c(=O)[nH]c(=O)n2Cc2ccco2)C1` (configuration not stated), the IC50 is > 25 µM (inactive).

As to `COc1c(C(=O)Nc2nnc(C3CC3)s2)csc1Cl`, the IC50 is > 25 µM (inactive).

For `Cc1ccc(NC(=O)Cn2cc(C(=O)c3ccccc3)c(=O)c3cc(C)ccc32)cc1`, the IC50 is > 25 µM (inactive).

As to `O=C(NCC(c1cccnc1)N1CCOCC1)C1CCCCC1` (configuration not stated), the IC50 is > 25 µM (inactive).

Consider `CCOc1cccc(-c2noc(-c3nn(-c4ccccc4)ccc3=O)n2)c1`, for which the IC50 was > 25 µM (inactive).

Consider `C=C1CCC2[C@](C)(CCC[C@]2(C)C(=O)OC)[C@H]1CCc1ccoc1/C=C/C(=O)O` (some centres not stated), for which the IC50 is > 25 µM (inactive).

On to `O=C(COc1ccc(Cl)cc1)Nc1noc(-c2cccs2)n1`, for which the IC50 is > 25 µM (inactive).

Consider `CC(C)CC[C@H]1O[C@@H](CC(=O)O)Cc2cc3c(c(O)c21)C(=O)c1sc(=O)n(C)c1C3=O`, for which the IC50 was > 25 µM (inactive).

Turning to `Cn1c2ccccc2c(=O)c2c(=O)n(-c3cccc(Cl)c3)c(-c3cccs3)nc21`, the IC50 was > 25 µM (inactive).

`COCCNC(=O)c1cc(-c2ccn(C3CCCC3)n2)n2ccccc12`: the IC50 is > 25 µM (inactive).

Take `Cc1ccccc1CCNCc1c(C(=O)O)n(Cc2ccc(Cl)cc2)c2ccccc12`: the IC50 is > 25 µM (inactive).

With `COc1cc(O)c2c(O)c3c(cc2c1)CC(C)OC3=O` (configuration not stated), the IC50 was > 25 µM (inactive).

In the case of `COc1ccc2c(C)c(CC(=O)N3CCC[C@H]3C(=O)O)c(=O)oc2c1C`, the IC50 is > 25 µM (inactive).

In the case of `O=c1c2cnc(N3CCCCC3)nc2ccn1CCc1ccccc1`, the IC50 was > 25 µM (inactive).

For `O=C(CCCCn1c(=O)[nH]c2ccccc2c1=O)Nc1cccc(Cl)c1`, the IC50 was > 25 µM (inactive).

Take `COc1ccc(CNC(=O)Nc2cccc3ccccc23)cc1`: the IC50 is > 25 µM (inactive).

Turning to `Cc1nc(S(=O)(=O)NC[C@@]23CCC[C@H]2N(C)C(=O)CC3)cn1C`, the IC50 is > 25 µM (inactive).

Take `CC[C@H](C)[C@H](NC(=O)[C@H]([C@@H](C)CC)N(C)C(C)=O)C(=O)N[C@H](C(=O)N[C@@H](CC(C)C)C(=O)C1(C)CO1)[C@@H](C)O` (some centres not stated): the IC50 was > 25 µM (inactive).

Turning to `COc1ccc(-c2cnn(-c3ccc(NC(=O)Nc4cccc(C(F)(F)F)c4)cc3)c2)cc1`, the IC50 was > 25 µM (inactive).

With `CCc1cccc(CC)c1NC(=O)COC(=O)c1cc2cccc(OC)c2oc1=O`, the IC50 was > 25 µM (inactive).

In the case of `O=C(c1cccc2ncccc12)N1CCN(c2ccnc3cc(Cl)ccc23)CC1`, the IC50 is > 25 µM (inactive).

Regarding `CCc1[nH]c(=O)cc2cc(OC)c(OC)cc12`, the IC50 was 23.5 µM.

For `COc1cccc(C(CC(=O)Nc2ccc3c(c2)OCCO3)n2cccc2)c1` (configuration not stated), the IC50 was > 25 µM (inactive).

In the case of `CCc1ccc(S(=O)(=O)c2cn(CC(=O)Nc3ccccc3)c3ccccc3c2=O)cc1`, the IC50 was > 25 µM (inactive).

On to `O=C(CCCn1c(=O)c2ccccc2n(CC(=O)NCc2ccccc2Cl)c1=O)NCc1ccc2c(c1)OCO2`, for which the IC50 is > 25 µM (inactive).

With `Cc1nc(C(=O)NC2(O)C(=O)c3ccccc3C2=O)cs1`, the IC50 is 20.7 µM.

Turning to `COc1cc(C2CC(=O)Nc3nc(-c4ccccc4)[nH]c(=O)c32)cc(OC)c1O` (configuration not stated), the IC50 is > 25 µM (inactive).

In the case of `O=C1[C@H]2Cc3c([nH]c4ccccc34)CN2C(=O)CN1Cc1ccc(F)cc1`, the IC50 is > 25 µM (inactive).

With `C=Cc1cc(OC)c2c(c1)c(=O)oc1c2cc(OC)c2c(O)ccc([C@H]3OC(C)[C@@H](OC(C)=O)C(N(C)C)C3O)c21` (some centres not stated), the IC50 was > 25 µM (inactive).
